Experimental data from patent US7115253B1, “Process for stabilizing antioxidant compounds, and aqueous compositions” (Industria E Comercio De Cosmeticos Natura Ltda., priority 1999, dated 2006).

Experiment: degradation kinetics of 10% LAA solution under ultraviolet radiation
Type: physicochemical
Experimental: Comparative tests carried out by the inventors confirm the important paper of the reducing agent in the stabilization of antioxidants as per information obtained by Wrinkler B. S. in his work cited herein. A first test was carried out in order to determine the degradation kinetics of a 10% LAA solution in water-containing medium (m/v) under ultraviolet radiation, using a ultraviolet spectrophotometer, for 60 minutes.
A stoichiometric amount of the reducing agent of the oxidation reaction, that is, Glutathion, was added to the previous post-irradiated solution. The resultant solution was irradiated with ultraviolet radiation for further 60 minutes. By analyzing the remaining LAA, it could be noticed that 9.50% (m/v) thereof was still present. Therefore, the degradation of the LAA is dramatically minimized after the reducing agent is added.
In a third test, a 10% LAA solution was prepared in a water-containing medium (m/v) with a stoichiometric amount of the reducing agent Glutathion. […] However, the use of said compound in stoichiometric amounts still presents the already mentioned disadvantages.

remaining concentration of molecular LAA (10% LAA solution in water-containing medium, ultraviolet radiation 60 minutes, no reducing agent): about 9.58 % (m/v)
remaining LAA (10% LAA solution with stoichiometric amount of Glutathion, ultraviolet radiation 60 minutes): 9.98 % (m/v)
remaining LAA (stoichiometric Glutathion added to the post-irradiated solution, ultraviolet radiation for further 60 minutes): 9.50 % (m/v)
Compound: O=C1O[C@H]([C@@H](O)CO)C(O)=C1O [LAA, levogyrous ascorbic acid]
